Legend:
[1] = tested on: HL60 cells; experiment: Mitochondrial transmembrane potential (MTP) assay, Rh123/PI, HL60 cells; format: cell-based; conditions: serum-deprived quiescent versus proliferating HL60 cells, fenretinide
Protocol: HL60 cells were cultured in RPMI 1640 supplemented (i) with or (ii) without 10% fetal bovine serum to obtain proliferating and quiescent leukemia cells respectively. Serum-deprived quiescent leukemic cells and proliferating leukemic cells were then cultured in media containing 0.5% FBS, and treated with 1 μM and 2.5 μM fenretinide, and also with chemotherapeutics as controls, 20 μM idarubicin (IDA) and 5 μM cytarabine (Ara-C).
To examine the effects of fenretinide on proliferating and quiescent leukemia cells, HL60 cells were chosen as serum deprived quiescent leukemic cell model obtained when incubated in RPMI 1640 without serum for 48 h, with G0/G1 phase cells (being in quiescent state) accounting up to 59.9%. Serum-deprived quiescent leukemic cells and proliferating leukemic cells were then cultured in media containing 0.5% FBS, and treated with 1 μM and 2.5 μM fenretinide, and also with chemotherapeutics as controls, 20 μM idarubicin (IDA) and 5 μM cytarabine (Ara-C). […] Fenretinide induces intracellular production of ROS, lowers mitochondrial transmembrane potential (MTP), and eventually leads to apoptosis in a variety of malignancies. We measured MTP induced by fenretinide in proliferating and quiescent HL60 cells, as examined through rhodamine 123 and propidium iodide staining and followed by flow cytometry analysis. […] We further measured intracellular ROS abundance induced by fenretinide. […] After incubation with 1 μM and 2.5 μM fenretinide for 3 h, the ROS level of proliferating cells increased by 1.77 and 2.6 fold, respectively.

[2] = tested on: CD34+CD38+ CML progenitor cells; experiment: Apoptosis (Annexin V/7AAD, FACS) of CML progenitor cells; format: cell-based, human
From the text: (§1) Fresh bone marrow (BM) cells were obtained from 38 patients with CML and 5 non-leukemic donors, 25 AML, 17 ALL, and 8 normal specimens with informed consent according to the Declaration of Helsinki. Approval was obtained from Institutional Review Board at the School of Medicine in Shanghai Jiao Tong University. BM mononuclear cells were isolated by Ficoll density gradient centrifugation (Shanghai Second Reagent Factory, Shanghai, China). CD34^+ Cell were selected using EasySep® Human CD34 Positive Selection kit (Stem Cell Technologies, Vancouver, BC, Canada) according to the manufacturer's instructions. The purity of CD34 cells ranged between 92 and 98% in all samples detennined by flow cytometry. The CD34^+ cells were cultured in a serum-free medium (StemPro 34; Gibco BRL, Gaithersburg, Md.) supplemented with growth factors (PeproTech, London, United Kingdom) (20). The growth factors consisted of GM-CSF (200 pg/mL), G-CSF (1 ng/mL); SCF (200 pg/mL); LIF (50 pg/mL), MIP-1α (200 pg/mL) and IL-6 (1 ng/mL).
(§2) Primitive AML and CML subpopulations (CD34^+ cells) were identified using CD34-PE in combination with CD38-APC, and followed by double-labeling with 7AAD and Annexin V antibodies for apoptosis assessment. The CD34^+ cells were first stained with antibodies against the surface markers CD34-PE and CD38-APC (Beckman Coulter, Fullerton, Calif.) and incubated at room temperature for 15 minutes. Cells were then washed with cold PBS and resuspended in 200 μL annexin V 1×binding buffer (10 mM HEPES/NaOH, pH 7.4, 140 mM NaCl, 2.5 mM CaCl2), 5 μL AnnexinV-FITC (BD Phanningen, San Diego, Calif.) and 7-aminoactinomycin (7-AAD, 0.25 mg/mL) (Molecular Probes, Eugene, Oreg.). Subsequently, the samples were incubated at room temperature for 15 minutes and analyzed by flow cytometry.
It would be of significance to find out the subpopulations specifically targeted by fenretinide. We divided the CML patient specimens into mononuclear cells and CD34^+ cells. The CD34^+ CML cells are primitive cells including CML stem and progenitor cells. […]

[3] = tested on: normal hematopoietic CD34+ cells; experiment: Apoptosis/viability of normal hematopoietic CD34+ cells; format: cell-based, human
From the text: as §1, §2
Primary acute leukemia cells from specimens including AML and ALL are mostly quiescent, especially for the subpopulations of leukemic CD34^+ cells (Guan and Hogge, 2000). To verify if this quiescent leukemia cells are sensitive to fenretinide, we compared the effects of fenretinide on primary leukemia versus normal specimens during short-term suspension culture. CD34^+ cells were isolated from primary acute leukemia specimens, and subjected to DNA content analysis through propidium iodide staining and followed by flow cytometry. The majority of isolated CD34^+ cells from AML and ALL were in G0/G1 phase of the cell cycle, indicating the quiescent feature of leukemia CD34^+ cells (FIG. 4A). Then, apoptosis profiles of AML CD34^+ cells and normal CD34^+ cells were examined through annexin-V FITC and 7AAD double staining (FIG. 4B).

[4] = tested on: MKN45; experiment: Apoptosis in gastric tumor cell line MKN45 (Rh123/PI, FACS); format: cell-based; conditions: MKN45, 48 hours; 4 μM fenretinide, 5 μM Tet, alone or co-treatment
Protocol: Loss of MTP was evaluated through rhodamine 123 (Rh123) and propidium iodide (PI) staining. 2×10^5 cells were washed by PBS and incubated with 1 μg/ml Rh123 at 37° C. for 30 min. After washed by PBS, 10 μl PI was added to cells for 15 min at room temperature in the dark. Fluorescence emission at 530 nm (representing R123 retention as a function of MTP) was measured with flow cytometry.
Fenretinide induces intracellular ROS and ER stress to activate series of molecular events including apoptotic pathway and such anti-apoptotic pathways as NF-κB cascade. NF-κB can mediate the progression of inflammation-related cancer. […] Unlike fenretinide, Tet is the well-known anti-cancer and anti-inflammation drugs via inhibiting the activity of NF-κB. For example, Tet, as the main effective component of Stephenia tetrandra S Moore, has bioactivities in reversing MDR (multidrug resistance), blocking calcium ion channel and so on. […] FIGS. 19A and 19B show synergistic induction of apoptosis by fenretinide and Tet, as evaluated by Rh123/PI double stain using FACS. […] Through annexin-V/PI double staining, synergistic apoptosis profiles of fenretinide/tetrandrine co-treated MKN45 and SGC7901 cells were also observed (see FIGS. 19C and 19D).

CC1=C(/C=C/C(C)=C/C=C/C(C)=C/C(=O)Nc2ccc(O)cc2)C(C)(C)CCC1 [fenretinide, N-(4-hydroxyphenyl)retinamide]
mitochondrial transmembrane potential (MTP) [1]: more significant reduced MTP | apoptosis of CD34+CD38+ cells ([2]; 2 μM fenretinide): 17.83%±6.01% | apoptosis of CD34+CD38+ cells ([2]; 4 μM fenretinide): 30.60%±4.93% | apoptosis of CD34+CD38+ cells ([2]; 6 μM fenretinide): 33.08%±19.43% | viability of normal hematopoietic CD34+ cells ([3]; 5 μM fenretinide): 97.1% | viability of normal hematopoietic CD34+ cells ([3]; 7.5 μM fenretinide): 58.1% | safe dose (presumed) ([3]; from viability of normal CD34+ cells): below 5 μM | response of normal hematopoietic CD34+ cells ([3]; short-term suspension culture): relative resistant | apoptosis [4]: 6.2%
